Experimental data taken from ChEMBL document CHEMBL1649259, “High prevalence of CTX-M-type beta-lactamases among clinical isolates of Enterobacteriaceae in Bamako, Mali” (2009).

Key:
Type in all cases: functional
[1] = system: Enterobacter cloacae; test: Antibacterial activity against CTX-M-15 ESBL producing Enterobacter cloacae assessed as resistant isolates by disk diffusion method
[2] = system: Enterobacter cloacae; test: Antibacterial activity against SHV-12 ESBL producing Enterobacter cloacae assessed as resistant isolates by disk diffusion method
[3] = system: Escherichia coli; test: Antibacterial activity against CTX-M-14 ESBL producing Escherichia coli assessed as resistant isolates by disk diffusion method
[4] = system: Escherichia coli; test: Antibacterial activity against CTX-M-15 ESBL producing Escherichia coli assessed as resistant isolates by disk diffusion method
[5] = system: Escherichia coli; test: Antibacterial activity against CTX-M-15 and SHV-27 ESBL producing Escherichia coli assessed as resistant isolates by disk diffusion method
[6] = system: Escherichia coli; test: Antibacterial activity against CTX-M-15 and SHV-12 ESBL producing Escherichia coli assessed as resistant isolates by disk diffusion method
[7] = system: Escherichia coli; test: Antibacterial activity against SHV-12 ESBL producing Escherichia coli assessed as resistant isolates by disk diffusion method
[8] = system: Klebsiella pneumoniae; test: Antibacterial activity against CTX-M-14 ESBL producing Klebsiella pneumoniae assessed as resistant isolates by disk diffusion method
[9] = system: Klebsiella pneumoniae; test: Antibacterial activity against CTX-M-15 ESBL producing Klebsiella pneumoniae assessed as resistant isolates by disk diffusion method
[10] = system: Klebsiella pneumoniae; test: Antibacterial activity against SHV-12 ESBL producing Klebsiella pneumoniae assessed as resistant isolates by disk diffusion method
[11] = system: Morganella morganii; test: Antibacterial activity against CTX-M-14 ESBL producing Morganella morganii assessed as resistant isolates by disk diffusion method
[12] = system: Proteus mirabilis; test: Antibacterial activity against CTX-M-14 ESBL producing Proteus mirabilis assessed as resistant isolates by disk diffusion method

Molecule	Activity [1] [%]	Activity [2] [%]	Activity [3] [%]	Activity [4] [%]	Activity [5] [%]	Activity [6] [%]	Activity [7] [%]	Activity [8] [%]	Activity [9] [%]	Activity [10] [%]	Activity [11] [%]	Activity [12] [%]
NCC[C@H](O)C(=O)N[C@@H]1C[C@H](N)[C@@H](O[C@H]2O[C@H](CN)[C@@H](O)[C@H](O)[C@H]2O)[C@H](O)[C@H]1O[C@H]1O[C@H](CO)[C@@H](O)[C@H](N)[C@H]1O [AMIKACIN]	0	78	0	17	0	0	100	0	20	50	100	0
O=C(N[C@H](CO)[C@H](O)c1ccc([N+](=O)[O-])cc1)C(Cl)Cl [CHLORAMPHENICOL]	100	89	82	73	100	100	100	67	40	83	100	100
O=C(O)c1cn(C2CC2)c2cc(N3CCNCC3)c(F)cc2c1=O [CIPROFLOXACIN]	–	–	100	98	100	100	0	33	–	67	100	100
CCn1cc(C(=O)O)c(=O)c2ccc(C)nc21 [NALIDIXIC ACID]	100	100	100	98	0	100	100	67	93	83	100	100
CCn1cc(C(=O)O)c(=O)c2cc(F)c(N3CCNCC3)cc21 [NORFLOXACIN]	100	89	100	98	100	100	100	33	96	67	100	100
CN(C)[C@@H]1C(O)=C(C(N)=O)C(=O)[C@@]2(O)C(O)=C3C(=O)c4c(O)cccc4[C@@](C)(O)[C@H]3C[C@@H]12 [TETRACYCLINE]	100	89	82	88	0	100	100	67	84	50	100	100
NC[C@H]1O[C@H](O[C@H]2[C@H](O)[C@@H](O[C@H]3O[C@H](CO)[C@@H](O)[C@H](N)[C@H]3O)[C@H](N)C[C@@H]2N)[C@H](N)C[C@@H]1O [TOBRAMYCIN]	100	89	100	97	100	100	100	67	96	83	100	0
COc1cc(Cc2cnc(N)nc2N)cc(OC)c1OC [TRIMETHOPRIM]	100	89	100	95	100	100	100	100	100	100	100	100
GENTAMICIN	100	12	100	83	100	100	0	67	89	33	100	0
